We go through 1 compound from patent US10729678B2, “Preparation of and formulation comprising a MEK inhibitor” (Array BioPharma Inc., priority 2012, dated 2020).

The subject of data set [1] is BRAFV600 or NRAS-mutant melanoma. Particulars: patients with either BRAFV600 or NRAS-mutant melanoma; cited from earlier work.
Data set [2] can be described thus: Solubility of Compound A in solvents and solvent mixtures. Format: physicochemical. As for the experimental part: Due to this low solubility, it is difficult to perform crystallization by standard cooling methods and to control crystal growth. […] This improvement in solubility contributes to an improvement in the purity profile of the final drug substance.
As discussed above, the crystallization process makes use of anti-solvent cooling system. In step d), water is added to the suspension or the cooled suspension mixture to provide a treated mixture. Water, which in general acts as an anti-solvent (solubility <0.01% over a wide temperature range), also unexpectedly acts as a solvent for Compound A when part of the water/methanol/tetrahydrofuran solvent system.

Data set [3] has as its system unresectable, locally advanced or metastatic biliary cancer. The conditions noted are these: 28 patients with ≤1 prior systemic therapy; oral 60 mg twice daily; after at least 6 weeks of treatment; cited from earlier work.

Take `Cn1cnc2c(F)c(Nc3ccc(Br)cc3F)c(C(=O)NOCCO)cc21` [Compound A, 6-(4-Bromo-2-fluorophenylamino)-7-fluoro-3-methyl-3H-benzoimidazole-5-carboxylic acid (2-hydroxyethyoxy)-amide]: the “effectiveness in treatment of patients” value in data set [1] is “effective”. For the same compound, the “solvent mixture at which maximum solubility is reached” value in data set [2] (65° C., solubility decreases with further addition of water) is “water (24%), methanol (38%), and tetrahydrofuran (38%)”. Besides, the “solubility in most standard solvents” value in data set [2] (room temperature) is on record as “less than 1%”. Moreover, the “increase of solubility on addition of water to solvent mixture” value in data set [2] (tetrahydrofuran and methanol with water, compared to methanol and tetrahydrofuran without water) is recorded as “approximately 50%”. For the same compound, the “solubility in water (anti-solvent)” value in data set [2] (water, broad/wide temperature range) is listed as under 0.01%. In data set [3], the “complete regression (number of patients)” value is reported as 1, the “partial regression (number of patients)” value was 1 and the “stable disease diagnoses (number of patients)” value is on record as 11.
